Measured values reported in patent US20130184302A1, “METHODS FOR TREATING IRRITABLE BOWEL SYNDROME (IBS) AND INFECTIONS” (priority 2011, published 2013).
Where two headings read alike, the source gives them in different places.

How the values were obtained:
subjects with IBS = assay: Sustained response and recurrence of symptoms after Primary Evaluation Period, rolling 4 weeks; format: in vivo, human; conditions: for Stool Consistency: Recurrence / Abdominal Pain & Stool Consistency: No Recurrence / Abdominal Pain & Stool Consistency: Recurrence / Abdominal Pain: No Recurrence / Abdominal Pain: Recurrence / Stool Consistency: No Recurrence: Rifaximin (N = 624); for Abdominal Pain or Stool Consistency: No Recurrence / Abdominal Pain or Stool Consistency: Recurrence: First and Second Studies
Procedure: An evaluation of the enrolled subjects was carried out after the Primary Evaluation Period in the study described in Examples 5-7. […] Subjects with no recurrence are defined as having a stool consistency score of less than 4, abdominal pain reduced by at least 30 percent or both.

[1] = system: C. difficile infection (CDI); assay: CDI trial: continuing illnesses; format: in vivo, human
IBS patients = conditions: cited from earlier work
[2] = Rifaximin N = 117, Vancomycin N = 115
[3] = Pimentel, et al., responders/treated
[4] = Yang, et al, responders/treated

CO[C@H]1/C=C/O[C@@]2(C)Oc3c(C)c(O)c4c(O)c(c5c(nc6cc(C)ccn65)c4c3C2=O)NC(=O)/C(C)=C\C=C\[C@H](C)[C@H](O)[C@@H](C)[C@@H](O)[C@@H](C)[C@H](OC(C)=O)[C@@H]1C [Rifaximin, (2S,16Z,18E,20S,21S,22R, 23R,24R,25S,26S,27S,28E)-5,6,21,23,25 Pentahydroxy-27-methoxy-2,4,11,16,20,22,24,26-octamethyl-2,7-(epoxypentadeca-(1,11,13)trienimino) benzofuro (4,5-e) pyrido(1,2,-a) benzimidazole-1,15(2H)-dione,25-acetate]
Stool Consistency: Recurrence (subjects with IBS; Rolling 4-7 Weeks): (1.3%)
Abdominal Pain or Stool Consistency: No Recurrence (subjects with IBS; Rolling 5-8 Weeks): (37.5%)
Abdominal Pain or Stool Consistency: Recurrence (subjects with IBS; Rolling 5-8 Weeks): (2.6%)
Abdominal Pain & Stool Consistency: No Recurrence (subjects with IBS; Rolling 5-8 Weeks): (44.6%)
Abdominal Pain & Stool Consistency: Recurrence (subjects with IBS; Rolling 5-8 Weeks): (3.2%)
Abdominal Pain: No Recurrence (subjects with IBS; Rolling 5-8 Weeks): (48.1%)
Abdominal Pain: Recurrence (subjects with IBS; Rolling 5-8 Weeks): (3.0%)
Stool Consistency: No Recurrence (subjects with IBS; Rolling 5-8 Weeks): (77.6%)
Stool Consistency: Recurrence (subjects with IBS; Rolling 5-8 Weeks): (2.1%)
Abdominal Pain or Stool Consistency: No Recurrence (subjects with IBS; Rolling 6-9 Weeks): (34.9%)
Abdominal Pain or Stool Consistency: Recurrence (subjects with IBS; Rolling 6-9 Weeks): (1.6%)
Abdominal Pain & Stool Consistency: No Recurrence (subjects with IBS; Rolling 6-9 Weeks): (41.3%)
Abdominal Pain & Stool Consistency: Recurrence (subjects with IBS; Rolling 6-9 Weeks): (2.2%)
Abdominal Pain: No Recurrence (subjects with IBS; Rolling 6-9 Weeks): (45.0%)
Abdominal Pain: Recurrence (subjects with IBS; Rolling 6-9 Weeks): (2.4%)
Stool Consistency: No Recurrence (subjects with IBS; Rolling 6-9 Weeks): (75.5%)
Stool Consistency: Recurrence (subjects with IBS; Rolling 6-9 Weeks): (2.6%)
Abdominal Pain or Stool Consistency: No Recurrence (subjects with IBS; Rolling 7-10 Weeks): (33.3%)
Abdominal Pain or Stool Consistency: Recurrence (subjects with IBS; Rolling 7-10 Weeks): (1.6%)
Abdominal Pain & Stool Consistency: No Recurrence (subjects with IBS; Rolling 7-10 Weeks): (39.1%)
Abdominal Pain & Stool Consistency: Recurrence (subjects with IBS; Rolling 7-10 Weeks): (1.8%)
Abdominal Pain: No Recurrence (subjects with IBS; Rolling 7-10 Weeks): (42.6%)
Abdominal Pain: Recurrence (subjects with IBS; Rolling 7-10 Weeks): (2.4%)
Stool Consistency: No Recurrence (subjects with IBS; Rolling 7-10 Weeks): (72.9%)
Stool Consistency: Recurrence (subjects with IBS; Rolling 7-10 Weeks): (1.4%)
Abdominal Pain or Stool Consistency: No Recurrence (subjects with IBS; Rolling 8-11 Weeks): (31.7%)
Abdominal Pain or Stool Consistency: Recurrence (subjects with IBS; Rolling 8-11 Weeks): (1.3%)
Abdominal Pain & Stool Consistency: No Recurrence (subjects with IBS; Rolling 8-11 Weeks): (37.3%)
Abdominal Pain & Stool Consistency: Recurrence (subjects with IBS; Rolling 8-11 Weeks): (2.2%)
Abdominal Pain: No Recurrence (subjects with IBS; Rolling 8-11 Weeks): (40.2%)
Abdominal Pain: Recurrence (subjects with IBS; Rolling 8-11 Weeks): (2.2%)
Stool Consistency: No Recurrence (subjects with IBS; Rolling 8-11 Weeks): (71.5%)
Stool Consistency: Recurrence (subjects with IBS; Rolling 8-11 Weeks): (0.5%)
Abdominal Pain or Stool Consistency: No Recurrence (subjects with IBS; Rolling 9-12 Weeks): (30.4%)
Abdominal Pain or Stool Consistency: Recurrence (subjects with IBS; Rolling 9-12 Weeks): (1.6%)
Abdominal Pain & Stool Consistency: No Recurrence (subjects with IBS; Rolling 9-12 Weeks): (35.1%)
Abdominal Pain & Stool Consistency: Recurrence (subjects with IBS; Rolling 9-12 Weeks): (1.9%)
Abdominal Pain: No Recurrence (subjects with IBS; Rolling 9-12 Weeks): (38.0%)
Abdominal Pain: Recurrence (subjects with IBS; Rolling 9-12 Weeks): (2.2%)
Stool Consistency: No Recurrence (subjects with IBS; Rolling 9-12 Weeks): (71.0%)
Stool Consistency: Recurrence (subjects with IBS; Rolling 9-12 Weeks): (2.1%)
Continuing Illness: No, number of subjects [1, 2]: 90
Continuing Illness: No, percent of subjects [1, 2]: (77%)
Continuing Illness: Yes, number of subjects [1, 2]: 27
Continuing Illness: Yes, percent of subjects [1, 2]: (23%)
Continuing Illness: Treatment Difference ([1]; Rifaximin vs Vancomycin): −9.2%
Initial treatment response (IBS patients; Jolley, IBS-D patients, 1200 mg/day for 10 days): Initial treatment response: 56% (25/45)
Re-treatment response (at least 1) (IBS patients; Jolley, IBS-D patients, 2400 mg/day for 10 days): Re-treatment response (at least 1): 54%
Complete (>90%) relief (IBS patients; Jolley, IBS-D patients): Complete (>90%) relief: 11% (5/45)
Complete (>90%) relief upon re-treatment (IBS patients; Jolley, IBS-D patients): re-treatment: 13% (3/24)
Re-treatment response (at least 1) (IBS patients; Pimentel, et al., 1 to 6 re-treatments): > 75%
Initial treatment response (IBS patients; Pimentel, et al., 169 Non-C IBS Patients (Rome III), 400-550 mg TID for 14 days): Initial treatment response: 75%
Duration of benefit (IBS patients; Pimentel, et al.): Duration of benefit is ~4 m
Re-treatment response, First (IBS patients; [3]): 54/65
Re-treatment response, Second (IBS patients; [3]): 38/40
Re-treatment response, Third (IBS patients; [3]): 17/18
Initial treatment response (IBS patients; Weinstock, 99 Non-C IBS Patients (Rome II), 1200-1650 mg/day for 10 days): Initial treatment response: 75% (74/99)
Patients who did not require retreatment (IBS patients; Weinstock): 27% did not require retreatment
Patients with only 12 retreatment in 2 y (IBS patients; Weinstock): 51% only 12 retreatment in 2 y
Patients who maintained response (IBS patients; Weinstock, for mean 1.6 y): 41%
Mean time response was maintained (IBS patients; Weinstock, in the 41% who maintained response): 1.6 y
Re-treatment response (at least 1) (IBS patients; Yang, et al, 1200 mg/day for 10 days): 100%
Initial treatment response (IBS patients; Yang, et al, 84 IBS Patients (Rome I), 1200 mg/day for 10 days): Initial treatment response: 69% (58/84)
Re-treatment response, First (IBS patients; [4]): 16/16
Re-treatment response, Second (IBS patients; [4]): 4/4
